IC50 data for 2 compounds are collected here from patent EP0554025A2, “Fluorinated cyclobutyl purines and pyrimidines” (E.R. SQUIBB & SONS, INC., priority 1992, dated 1993).

Where two headings read alike, the source gives them in different places.

Assay type in all cases: cell-based
In assay [1] the test system is HSV-2 (herpes simplex virus type 2, strain 186). Put plainly: HSV-2 plaque reduction antiviral assay in WI-38 cell culture monolayers. As to conditions: WI-38 cell monolayers, plaque reduction after 4 days incubation at 37°C, read-out: ID50 (μM) for the following viruses HSV-2. The method, then:
(§1) Assays were performed in cell culture systems to determine the concentrations of compounds that are effective in preventing several kinds of viral infections. HSV-1 (herpes simplex virus type 1, strain Schooler), HSV-2 (herpes simplex virus type 2, strain 186), VZV (varicella zoster virus, strain ELLEN), HCMV (human cytomegalovirus, strain AD 169). HSV-1, HSV-2, HCMV, and VZV antiviral assays: Virus was adsorbed to WI-38 cell culture monolayers in 6 cell culture plates (Costar, Cambridge, MA) for 1 hour prior to addition of maintenance medium containing duplicate dilutions of the test compound. Inhibition of plaque development was evaluated on fixed and stained monolayers after 4 days incubation at 37°C for HSV-1 and HSV-2 and after 6-7 days incubation at 37°C for HCMV and VZV. ID50 values were determined from the drug concentration which conferred at least a 50% plaque reduction compared to virus controls.

The subject of assay [2] is VZV (varicella zoster virus, strain ELLEN). Put plainly: VZV plaque reduction antiviral assay in WI-38 cell culture monolayers. As to conditions: plaque reduction after 6-7 days incubation at 37°C, read-out: ID50 (μM) for the following viruses VZV. The method, then:
as §1

Assay [3] concerns HSV-1 (herpes simplex virus type 1, strain Schooler). Put plainly: HSV-1 plaque reduction antiviral assay in WI-38 cell culture monolayers. The note with it: WI-38 cell monolayers, plaque reduction after 4 days incubation at 37°C, read-out: ID50 (μM) for the following viruses HSV-1. How it is done:
as §1

For assay [4], the system named is HCMV (human cytomegalovirus, strain AD 169). Description: HCMV plaque reduction antiviral assay in WI-38 cell culture monolayers. The note with it: plaque reduction after 6-7 days incubation at 37°C, read-out: ID50 (μM) for the following viruses HCMV. How it is done:
as §1

Turning to `Nc1nc2c(ncn2C2CC(F)(CO)C2CO)c(=O)[nH]1` (stereo not drawn) [Product of Example 1, (1α,2β,3β)-2-Amino-9-[3-fluoro-2,3-bis(hydroxymethyl)cyclobutyl]-1,9-dihydro-6H-purin-6-one], the IC50 in assay [1] (Human alphaherpesvirus 2, 96 h) is 0.35 to 0.7 µM; in assay [2] (Human alphaherpesvirus 3, WI-38 cell monolayers), 1.1 µM; in assay [3] (Human alphaherpesvirus 1, 96 h), 0.35 to 0.7 µM; in assay [4] (Human betaherpesvirus 5, WI-38 cell monolayers), 7 to 18 µM.

Regarding `Nc1nc2c(ncn2[C@H]2C[C@@](F)(CO)[C@@H]2O)c(=O)[nH]1` [Product of Example 2, (1 α,2β,3β)-2-Amino-9-[3-fluoro-2-hydroxy-3-(hydroxymethyl)cyclobutyl]-1,9-dihydro-6H-purin-6-one], the IC50 in assay [1] was 37 to 93 µM; in assay [2] (WI-38 cell monolayers), 7 to 19 µM; in assay [3], 37 to 93 µM; in assay [4] (WI-38 cell monolayers), 37 µM.
